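Values below derive from 48-hour exposures of cells grown in 96-well plates, with endpoints linearly interpolated between the two concentrations bracketing the appropriate inhibition level. GI50 = concentration required for 50% inhibition of growth. TGI denotes the concentration required for complete inhibition of growth.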
Experiments:
Experiment in all cases: growth of human tumour cells (NCI), 48 h
[1] = tested on: HCT-116 colon
[2] = tested on: MDA-MB-435
[3] = tested on: SK-MEL-28 melanoma
[4] = tested on: OVCAR-8 ovarian
[5] = tested on: DU-145 prostate
[6] = tested on: RPMI-8226 leukemia
[7] = tested on: OVCAR-4 ovarian
[8] = tested on: MOLT-4 leukemia
[9] = tested on: HL-60(TB) leukemia
[10] = tested on: SN12C renal
[11] = tested on: HCC-2998 colon
[12] = tested on: MCF7 breast
[13] = tested on: HS 578T breast
[14] = tested on: NCI-H226 lung
[15] = tested on: UO-31 renal
[16] = tested on: ACHN renal
[17] = tested on: A498 renal
[18] = tested on: M14 melanoma
[19] = tested on: HOP-62 NSCLC
[20] = tested on: A549 NSCLC
[21] = tested on: BT-549 breast
[22] = tested on: OVCAR-5 ovarian
[23] = tested on: TK-10 renal
[24] = tested on: SW-620 colon
[25] = tested on: K-562 leukemia
[26] = tested on: 786-0 renal
[27] = tested on: UACC-257 melanoma
[28] = tested on: HCT-15 colon
[29] = tested on: IGROV1 ovarian
[30] = tested on: LOX IMVI melanoma
[31] = tested on: COLO 205 colon
[32] = tested on: SF-295 CNS
[33] = tested on: CCRF-CEM leukemia
[34] = tested on: KM12 colon
[35] = tested on: HT29 colon
[36] = tested on: HOP-92 NSCLC
[37] = tested on: NCI-H522 lung
[38] = tested on: NCI/ADR-RES ovarian
[39] = tested on: SF-539 CNS
[40] = tested on: UACC-62 melanoma
[41] = tested on: U251 CNS
[42] = tested on: SF-268 CNS
[43] = tested on: NCI-H23 lung
[44] = tested on: T-47D breast
[45] = tested on: SNB-75 CNS
[46] = tested on: MALME-3M melanoma
[47] = tested on: PC-3 prostate
[48] = tested on: RXF 393 renal
[49] = tested on: MDA-MB-231 breast
[50] = tested on: CAKI-1 renal
[51] = tested on: NCI-H460 lung
[52] = tested on: SR leukemia
[53] = tested on: SK-MEL-5 melanoma
[54] = tested on: SK-MEL-2 melanoma
[55] = tested on: SK-OV-3 ovarian
[56] = tested on: OVCAR-3 ovarian
[57] = tested on: SNB-19 CNS

**Q.** What does the source list for `Cn1cc(C2=C(Oc3ccccc3)C(=O)NC2=O)c2ccccc21`?
**A.** GI50 [1]: > 25 µM; TGI [1]: > 25 µM; GI50 [2]: > 25 µM; TGI [2]: > 25 µM; GI50 [3]: > 25 µM; TGI [3]: > 25 µM; GI50 [4]: > 25 µM; TGI [4]: > 25 µM; GI50 [5]: > 25 µM; TGI [5]: > 25 µM; GI50 [6]: > 25 µM; TGI [6]: > 25 µM; GI50 [7]: > 25 µM; TGI [7]: > 25 µM; GI50 [8]: > 25 µM; TGI [8]: > 25 µM; GI50 [9]: > 25 µM; TGI [9]: > 25 µM; GI50 [10]: > 25 µM; TGI [10]: > 25 µM; GI50 [11]: > 25 µM; TGI [11]: > 25 µM; GI50 [12]: > 25 µM; TGI [12]: > 25 µM; GI50 [13]: > 25 µM; TGI [13]: > 25 µM; GI50 [14]: > 25 µM; TGI [14]: > 25 µM; GI50 [15]: > 25 µM; TGI [15]: > 25 µM; GI50 [16]: > 25 µM; TGI [16]: > 25 µM; GI50 [17]: > 25 µM; TGI [17]: > 25 µM; GI50 [18]: > 25 µM; TGI [18]: > 25 µM; GI50 [19]: > 17.8 µM; TGI [19]: > 25 µM; GI50 [20]: > 25 µM; TGI [20]: > 25 µM; GI50 [21]: > 25 µM; TGI [21]: > 25 µM; GI50 [22]: > 25 µM; TGI [22]: > 25 µM; GI50 [23]: > 25 µM; TGI [23]: > 25 µM; GI50 [24]: > 25 µM; TGI [24]: > 25 µM; GI50 [25]: > 25 µM; TGI [25]: > 25 µM; GI50 [26]: > 25 µM; TGI [26]: > 25 µM; GI50 [27]: > 25 µM; TGI [27]: > 25 µM; GI50 [28]: > 25 µM; TGI [28]: > 25 µM; GI50 [29]: > 25 µM; TGI [29]: > 25 µM; GI50 [30]: > 25 µM; TGI [30]: > 25 µM; GI50 [31]: > 25 µM; TGI [31]: > 25 µM; GI50 [32]: > 25 µM; TGI [32]: > 25 µM; GI50 [33]: > 25 µM; TGI [33]: > 25 µM; GI50 [34]: > 25 µM; TGI [34]: > 25 µM; GI50 [35]: > 25 µM; TGI [35]: > 25 µM; GI50 [36]: 6.32 µM; TGI [36]: > 25 µM; GI50 [37]: > 25 µM; TGI [37]: > 25 µM; GI50 [38]: > 25 µM; TGI [38]: > 25 µM; GI50 [39]: > 25 µM; TGI [39]: > 25 µM; GI50 [40]: > 25 µM; TGI [40]: > 25 µM; GI50 [41]: > 25 µM; TGI [41]: > 25 µM; GI50 [42]: > 25 µM; TGI [42]: > 25 µM; GI50 [43]: > 25 µM; TGI [43]: > 25 µM; GI50 [44]: > 25 µM; TGI [44]: > 25 µM; GI50 [45]: > 12.4 µM; TGI [45]: > 25 µM; GI50 [46]: > 25 µM; TGI [46]: > 25 µM; GI50 [47]: > 25 µM; TGI [47]: > 25 µM; GI50 [48]: > 25 µM; TGI [48]: > 25 µM; GI50 [49]: > 19.3 µM; TGI [49]: > 25 µM; GI50 [50]: > 25 µM; TGI [50]: > 25 µM; GI50 [51]: > 25 µM; TGI [51]: > 25 µM; GI50 [52]: > 25 µM; TGI [52]: > 25 µM; GI50 [53]: > 25 µM; TGI [53]: > 25 µM; GI50 [54]: > 25 µM; TGI [54]: > 25 µM; GI50 [55]: > 25 µM; TGI [55]: > 25 µM; GI50 [56]: > 25 µM; TGI [56]: > 25 µM; GI50 [57]: > 25 µM; TGI [57]: > 25 µM
